Source: ChEMBL document CHEMBL1201862, “PubChem BioAssay data set” (2004)
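In this assay, cells in 96-well plates receive the compound at five concentrations for 48 hours. Endpoints are linearly interpolated between the surrounding concentrations. At the GI50, growth is halved.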 Activity calls are given as the source filed them. Cut-off read from the data, not from the text of the source: active = GI50 up to about 1.1 µM and inactive = higher.

Legend:
Test in all cases: NCI anticancer screen, dose series, 48 h
[1] = system: A498
[2] = system: DU-145
[3] = system: HCT-15
[4] = system: HL-60
[5] = system: KM12
[6] = system: LOX IMVI
[7] = system: MCF7
[8] = system: NCI-H460
[9] = system: NCI/ADR-RES
[10] = system: OVCAR-4
[11] = system: SF-268
[12] = system: SNB-19
[13] = system: SNB-75
[14] = system: SR
[15] = system: T47D
[16] = system: UACC-62
[17] = system: UO-31
[18] = system: DMS-114
[19] = system: SNB-78
[20] = system: DMS-273

Measured: GI50

COC(=O)c1cc2c(cc1CC(Cc1ccc3c(c1)CCCC3)C(=O)OC)CCCC2 (stereo unspecified)
35.7 µM: [3]
inactive: [1] > 100 µM | [2] > 100 µM | [4] 7.45 µM | [5] 50.5 µM | [6] 28.2 µM | [7] 40.1 µM | [8] 34 µM | [9] 41.3 µM | [10] 29.9 µM | [11] 29 µM | [12] > 100 µM | [13] 64.4 µM | [14] 97.7 µM | [15] 39.8 µM | [16] > 100 µM | [17] > 100 µM

CC1CC[C@@]2(OC1)OC1C[C@H]3[C@@H]4CC[C@H]5CC(OC6OC(CO)C(OC7OC(CO)C(O)C(O)C7OC7OC(CO)C(O)C(O)C7O)C(O)C6O)CCC5(C)[C@H]4CCC3(C)C1[C@@H]2C (stereo partly specified)
10.3 µM: [3]
active: [2] 0.975 µM | [7] 1.01 µM | [17] 0.993 µM
inactive: [1] 1.52 µM | [4] 4.97 µM | [5] 3.33 µM | [6] 1.76 µM | [8] 3.08 µM | [9] 6.38 µM | [10] 1.14 µM | [11] 2.75 µM | [12] 3.37 µM | [13] 2.59 µM | [14] 1.81 µM | [15] 2.16 µM | [16] 8.95 µM

O=C1NC(=O)C(CCC(=O)c2cccc3ccccc23)C(=O)N1
> 100 µM: [3]
inactive: [1] > 100 µM | [2] > 100 µM | [4] > 100 µM | [5] > 100 µM | [6] > 100 µM | [7] > 100 µM | [8] > 100 µM | [9] > 100 µM | [10] > 100 µM | [11] > 100 µM | [12] > 100 µM | [13] 26.4 µM | [14] 85.3 µM | [15] > 100 µM | [16] > 100 µM | [17] > 100 µM

CN(OC(=O)CC(=O)c1ccccc1)C(=O)Cc1ccccc1
inactive: [1] > 100 µM | [18] > 100 µM | [4] > 100 µM | [5] > 100 µM | [6] > 100 µM | [8] > 100 µM | [10] > 100 µM | [11] > 100 µM | [12] > 100 µM | [19] > 100 µM | [14] > 100 µM | [16] > 100 µM | [17] > 100 µM
> 100 µM: [3]

C=C(CO)CC(O)c1cc(OC)ccc1OC (stereo unspecified)
> 100 µM: [3]
inactive: [20] > 100 µM | [4] > 100 µM | [5] > 100 µM | [6] > 100 µM | [8] > 100 µM | [10] > 100 µM | [11] > 100 µM | [12] > 100 µM | [13] > 100 µM | [16] > 100 µM | [17] > 100 µM

O=Cc1ccc(-c2ccc(-c3ccc(CO)s3)o2)s1
inactive: [2] 11.5 µM | [4] 3.85 µM | [5] 42.6 µM | [6] 9.04 µM | [9] 10.6 µM | [11] 18.6 µM | [12] 32 µM | [13] 20.2 µM | [15] 2.21 µM | [17] 15.6 µM
24.4 µM: [3]
active: [1] 0.104 µM | [7] 0.348 µM | [8] 0.101 µM | [10] 0.318 µM | [14] 0.239 µM | [16] 0.151 µM

CCCC1CC(=O)NC(=O)C1C(=O)OC(C)(C)C (stereo unspecified)
inactive: [1] > 100 µM | [2] > 100 µM | [4] > 100 µM | [5] > 100 µM | [6] > 100 µM | [7] > 100 µM | [8] > 100 µM | [9] > 100 µM | [10] > 100 µM | [11] > 100 µM | [12] > 100 µM | [13] > 100 µM | [14] 64.7 µM | [15] > 100 µM | [16] > 100 µM | [17] > 100 µM
> 100 µM: [3]

Cc1ccc(C)c(NC(=O)CC/C(=N\NC(=O)C(N)=O)C(C)C(=O)c2ccc(O)cc2)c1 (stereo unspecified)
> 100 µM: [3]
inactive: [18] > 100 µM | [4] > 100 µM | [5] > 100 µM | [6] > 100 µM | [8] > 100 µM | [10] > 100 µM | [11] > 100 µM | [12] > 100 µM | [19] > 100 µM | [14] > 100 µM | [16] > 100 µM | [17] > 100 µM

C=C(C)CCOC(c1ccccc1)(c1ccccc1)c1ccccc1
inactive: [4] 31.5 µM | [5] 48.6 µM | [6] 25.2 µM | [8] 29.1 µM | [10] 34.7 µM | [11] 47 µM | [12] > 100 µM | [13] 68.7 µM | [19] 70.1 µM | [16] 40.1 µM | [17] 27.7 µM
47.3 µM: [3]
